Values belong to the molecule of their own block, whether it stands above or below them.
Columns and labels:
PARP1 [1] = biological target: T1, PARP1 (Mus musculus, UniProt P11103); experiment: PARP1 enzymatic activity, PAR chain formation after γ-irradiation, MEF cells; format: cell-based
T1 construct: endogenous in cells; host or cells: MEF (mouse embryonic fibroblasts)
Description: FIG. 10: (A) MEF cells were pre-treated with the indicated substances, irradiated and cell lysates were used for poly(ADP)-ribose probing using a specific antibody. (B) Experiment performed as described for (A), but using U2OS cells.

PARP1 [2] = biological target: T1, PARP1; settings: MEF, after etoposide administration (Stilmann et al.; 2009); cited from earlier work
PARP1 [3] = biological target: T2, PARP1 (Homo sapiens, UniProt P09874); experiment: PAR chain formation after γ-irradiation, HepG2 cells; format: cell-based; parameters: endogenous in cells; settings: HepG2, 15 min after irradiation
Description: (§1) FIG. 14: (A) U2OS cells were pre-treated with different concentrations of olaparib prior to co-treatment with etoposide. Whole cell lysis was performed after 90 min and cleared lysates were used for WB with indicated antibodies. (B) U2OS cells were pre-treated with DMSO, olaparib or the ATM inhibitor Ku55933 and co-treated with etoposide. Cells were harvested after 45 min and subjected to SDS-PAGE/WB. Membranes were stained with the indicated antibodies. The experiment of (B) was performed simultaneously to the experiments of (A) and (E) to control functionality of olaparib in inhibiting PAR chain formation. (C) Densitometrical analyses of (A) and two further independent experiments done as shown in (A). (D) U2OS cells were pre-treated with the substances as indicated prior to irradiation. After 90 min mRNA was isolated, transcribed into cDNA and was used for expression analyses of the indicated genes using quantitative real-time PCR (qRT-PCR). (E) HepG2 cells were pre-treated with the PARP inhibitors olaparib, 3-AB and EB-47 prior to γ-irradiation. Cells were harvested after 15 and 90 min and subjected to SDS-PAGE/WB. Membranes were stained with the indicated antibodies. Error bars equal SEM.

[4] = system: genotoxic stress-activated NF-κB signaling; experiment: TAK1 and p65 S536 phosphorylation after γ-irradiation, WB, HepG2 cells; format: cell-based, human; settings: HepG2, 90 min after irradiation, PARP inhibitors
Description: FIG. 6: (A) U2OS cells were pre-treated with DMSO or MW01 and irradiated. Stimulation of cell with IL-1β served as a positive control for IκBα and p65 phosphorylation. Cells were lysed at indicated time points and used for WB analyses. (B,C) Similar experimental setup as in (A). (D) Experiment as in (A-C), but with other time points analysed and performed with HepG2 cells. PARP1 and LDH serve as loading controls.
(§2) FIG. 9: HepG2 cells were pre-incubated with DMSO, MW01 (5 μM) or the ATM inhibitor Ku55933 (10 μM) and irradiated. After 60 min cells were harvested and processed. Immunochemical staining of Western blotting membranes was done using indicated antibodies.
as §1

PARP1 [5] = biological target: T2, PARP1; settings: HepG2, after γ-irradiation (Stilmann et al.; 2009); cited from earlier work
[6] = system: NF-κB DNA binding activity; settings: HEK293; data not shown, personal communication; cited from earlier work
[7] = system: NF-κB target genes NFKBIA, TNFAIP3, CXCL8; experiment: qRT-PCR of NF-κB target genes after irradiation, U2OS cells; format: cell-based, human; settings: 90 min after irradiation
Description: as §1
To quantitate specific mRNA (messenger RNA) species in samples RNA was isolated, RNA concentration was measured and mRNA was transcribed into cDNA. The amount of mRNA transcripts of certain genes within a sample was quantified by employing gene specific primers and using a C-1000 Thermal cycler (Biorad). The expression of genes of interest was normalised against two or three reference genes (HRPT1, RPL_13a and B2M) using the CFX manager software. The fold induction of mRNA was calculated over untreated sample levels by the ΔΔ-Ct method.

ATM = biological target: T3, ATM (Homo sapiens, UniProt Q13315); experiment: Enzymatic activity of ATM in γ-irradiated HepG2 cells, WB of ATM and substrate phosphorylation; format: cell-based; settings: HepG2, γ-irradiation, 60 min; MW01 5 μM, Ku55933 10 μM
T3 construct: endogenous in cells; host or cells: HepG2
Description: as §2

[8] = system: genotoxic stress-induced phosphorylation of p65 at S536; experiment: Structure-activity-relationship: p-p65 S536/p65 densitometry after etoposide, U2OS cells; format: cell-based, human; settings: 10 μM, 2 h prior to etoposide, normalised to DMSO/etoposide
Description: FIG. 13: (A) U2OS cells were pre-treated with DMSO, MW01 or its derivatives MW01A1-MW01C5 at concentrations of 10 μM for 2 h prior to etoposide treatment. After incubation with etoposide cells were harvested, lysed and subjected to SDS-PAGE/WB. Phospho-[…] p65 signal intensities as well as p65 signal intensities were detected using a CCD camera and band intensities were used for densitometrical analyses. DMSO and etoposide treated control was set to 1. Four independent experiments were performed and statistical outliers were identified and eliminated using Grubb's test. […] (B) NFkB/293/GFP-luc cells were pre-treated with DMSO, MW01 or its derivatives MW01D01-MW01D18 at concentrations of 10 μM for 1.5 h prior to etoposide treatment. After incubation for 4.5 hours NF-κB-dependent luciferase expression was measured by detection of chemoluminescence. DMSO and etoposide treated control was set to 1. Twelve independent experiments were performed.
Different derivatives of MW01 were obtained (FIG. 12 A) and tested for their ability to inhibit genotoxic stress-induced phosphorylation of p65 at S536. Densitometry of western blot bands was used to quantify signal intensities of the p65 S536 phosphorylation and total p65 amount. The signal intensities of the p65 S536 phosphorylation were normalised to the signal intensities of total p65 and the quotients were normalised to DMSO/etoposide and compared with MW01/etoposide co-treated samples (FIG. 13). […] Compared to MW01, these compounds are derivatives in which the hydroxyl group was exchanged with a small substitute either fluoride, chloride or a methyl group, respectively. Furthermore, MW01C3 and MW01C4 differed in the substitution of the aromatic ring system V (FIG. 12 B) regarding the two methoxy groups that are missing.

p65 S536 phosphorylation = p65 S536 phosphorylation after γ-IR or etoposide, SDS-PAGE/WB, U2OS cells; format: cell-based, human
Description: FIG. 3: (A) U2OS cells were pre-treated with increasing concentrations of MW01 in duplicates in a 384 well plate. Then, cells were treated with etoposide, fixed and subjected to IF of p65. Spatial measurement of p65 cytosolic and nuclear localisation was used for calculation of p65 translocation rates. (B) U2OS cells were pre-treated with DMSO, MW01 and irradiated with γ-IR. After 90 min cells were lysed and subjected to SDS-PAGE/WB and EMSA. (C) Cells were pre-treated with different concentrations of MW01 as indicated, treated with γ-IR (C) or etoposide (D) and subjected to WB or EMSA, respectively. LDH in (C) represents the loading control.
as §1, with “Cells were harvested after 15 and 90 min and subjected to SDS-PAGE/WB. Membranes were stained with the indicated antibodies. Error bars equal SEM.” left out
After transfer of proteins on PVDF membranes unspecific binding of antibodies was blocked by incubation of membranes in 5% skim milk powder in TBST buffer (or 3% BSA in TBST for phosphorylation-specific antibodies) for 1 h at RT. […] After three times of washing with TBST and once with PBS for 5 min, chemiluminescent photon emission was detected using a CCD camera system (Fusion Solo). […]

T1 sequence (P11103 whole entry): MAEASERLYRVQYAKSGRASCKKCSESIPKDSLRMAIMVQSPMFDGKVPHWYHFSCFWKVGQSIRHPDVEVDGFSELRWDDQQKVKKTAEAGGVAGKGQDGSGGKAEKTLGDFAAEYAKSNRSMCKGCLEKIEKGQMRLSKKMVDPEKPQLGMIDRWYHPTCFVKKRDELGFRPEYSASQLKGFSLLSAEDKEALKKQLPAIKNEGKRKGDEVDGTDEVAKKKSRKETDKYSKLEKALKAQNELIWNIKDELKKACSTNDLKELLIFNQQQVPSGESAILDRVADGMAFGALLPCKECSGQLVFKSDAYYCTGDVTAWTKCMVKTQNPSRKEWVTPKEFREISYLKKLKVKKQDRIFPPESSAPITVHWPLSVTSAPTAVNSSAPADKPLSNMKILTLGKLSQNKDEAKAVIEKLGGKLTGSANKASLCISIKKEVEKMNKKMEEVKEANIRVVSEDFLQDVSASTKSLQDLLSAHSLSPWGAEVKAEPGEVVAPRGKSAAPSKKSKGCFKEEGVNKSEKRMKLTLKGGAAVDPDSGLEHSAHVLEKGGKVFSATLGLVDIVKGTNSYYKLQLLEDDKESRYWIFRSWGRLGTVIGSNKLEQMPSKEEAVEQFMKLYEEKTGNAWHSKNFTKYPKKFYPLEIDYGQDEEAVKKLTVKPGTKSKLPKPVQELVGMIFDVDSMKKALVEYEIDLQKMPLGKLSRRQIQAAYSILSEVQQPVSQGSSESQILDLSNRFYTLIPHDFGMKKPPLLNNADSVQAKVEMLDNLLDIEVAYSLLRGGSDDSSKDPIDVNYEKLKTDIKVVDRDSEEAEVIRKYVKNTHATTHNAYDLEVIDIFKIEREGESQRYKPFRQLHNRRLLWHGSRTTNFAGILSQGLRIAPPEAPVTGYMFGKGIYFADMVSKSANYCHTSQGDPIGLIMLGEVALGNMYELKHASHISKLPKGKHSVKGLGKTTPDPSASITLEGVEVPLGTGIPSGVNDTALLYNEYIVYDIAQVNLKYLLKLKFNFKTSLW
T2 sequence (P09874 whole entry): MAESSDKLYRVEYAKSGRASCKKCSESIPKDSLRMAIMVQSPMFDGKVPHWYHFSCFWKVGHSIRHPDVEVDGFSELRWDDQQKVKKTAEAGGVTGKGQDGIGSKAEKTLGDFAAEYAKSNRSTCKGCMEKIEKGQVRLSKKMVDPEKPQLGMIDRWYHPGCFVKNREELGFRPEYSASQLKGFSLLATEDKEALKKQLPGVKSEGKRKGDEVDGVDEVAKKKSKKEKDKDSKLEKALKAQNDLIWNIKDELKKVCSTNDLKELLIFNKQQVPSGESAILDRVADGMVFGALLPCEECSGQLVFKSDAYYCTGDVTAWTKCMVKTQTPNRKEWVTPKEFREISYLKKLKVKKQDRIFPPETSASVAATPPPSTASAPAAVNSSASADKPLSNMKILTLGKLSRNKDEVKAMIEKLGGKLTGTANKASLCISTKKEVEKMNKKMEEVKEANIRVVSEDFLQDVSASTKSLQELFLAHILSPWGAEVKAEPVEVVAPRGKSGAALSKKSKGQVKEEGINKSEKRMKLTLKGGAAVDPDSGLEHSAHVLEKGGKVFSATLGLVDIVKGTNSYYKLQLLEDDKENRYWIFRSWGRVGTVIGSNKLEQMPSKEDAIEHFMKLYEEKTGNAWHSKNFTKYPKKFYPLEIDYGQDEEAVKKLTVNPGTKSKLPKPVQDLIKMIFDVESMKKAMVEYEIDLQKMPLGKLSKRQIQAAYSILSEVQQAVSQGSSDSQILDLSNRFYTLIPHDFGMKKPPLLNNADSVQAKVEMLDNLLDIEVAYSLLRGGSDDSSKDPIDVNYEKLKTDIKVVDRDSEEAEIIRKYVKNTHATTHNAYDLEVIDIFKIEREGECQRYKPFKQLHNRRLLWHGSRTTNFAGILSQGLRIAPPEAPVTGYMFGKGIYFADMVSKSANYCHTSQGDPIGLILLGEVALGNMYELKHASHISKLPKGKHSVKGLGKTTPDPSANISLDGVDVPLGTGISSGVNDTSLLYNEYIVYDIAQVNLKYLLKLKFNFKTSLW
T3 sequence (Q13315 whole entry): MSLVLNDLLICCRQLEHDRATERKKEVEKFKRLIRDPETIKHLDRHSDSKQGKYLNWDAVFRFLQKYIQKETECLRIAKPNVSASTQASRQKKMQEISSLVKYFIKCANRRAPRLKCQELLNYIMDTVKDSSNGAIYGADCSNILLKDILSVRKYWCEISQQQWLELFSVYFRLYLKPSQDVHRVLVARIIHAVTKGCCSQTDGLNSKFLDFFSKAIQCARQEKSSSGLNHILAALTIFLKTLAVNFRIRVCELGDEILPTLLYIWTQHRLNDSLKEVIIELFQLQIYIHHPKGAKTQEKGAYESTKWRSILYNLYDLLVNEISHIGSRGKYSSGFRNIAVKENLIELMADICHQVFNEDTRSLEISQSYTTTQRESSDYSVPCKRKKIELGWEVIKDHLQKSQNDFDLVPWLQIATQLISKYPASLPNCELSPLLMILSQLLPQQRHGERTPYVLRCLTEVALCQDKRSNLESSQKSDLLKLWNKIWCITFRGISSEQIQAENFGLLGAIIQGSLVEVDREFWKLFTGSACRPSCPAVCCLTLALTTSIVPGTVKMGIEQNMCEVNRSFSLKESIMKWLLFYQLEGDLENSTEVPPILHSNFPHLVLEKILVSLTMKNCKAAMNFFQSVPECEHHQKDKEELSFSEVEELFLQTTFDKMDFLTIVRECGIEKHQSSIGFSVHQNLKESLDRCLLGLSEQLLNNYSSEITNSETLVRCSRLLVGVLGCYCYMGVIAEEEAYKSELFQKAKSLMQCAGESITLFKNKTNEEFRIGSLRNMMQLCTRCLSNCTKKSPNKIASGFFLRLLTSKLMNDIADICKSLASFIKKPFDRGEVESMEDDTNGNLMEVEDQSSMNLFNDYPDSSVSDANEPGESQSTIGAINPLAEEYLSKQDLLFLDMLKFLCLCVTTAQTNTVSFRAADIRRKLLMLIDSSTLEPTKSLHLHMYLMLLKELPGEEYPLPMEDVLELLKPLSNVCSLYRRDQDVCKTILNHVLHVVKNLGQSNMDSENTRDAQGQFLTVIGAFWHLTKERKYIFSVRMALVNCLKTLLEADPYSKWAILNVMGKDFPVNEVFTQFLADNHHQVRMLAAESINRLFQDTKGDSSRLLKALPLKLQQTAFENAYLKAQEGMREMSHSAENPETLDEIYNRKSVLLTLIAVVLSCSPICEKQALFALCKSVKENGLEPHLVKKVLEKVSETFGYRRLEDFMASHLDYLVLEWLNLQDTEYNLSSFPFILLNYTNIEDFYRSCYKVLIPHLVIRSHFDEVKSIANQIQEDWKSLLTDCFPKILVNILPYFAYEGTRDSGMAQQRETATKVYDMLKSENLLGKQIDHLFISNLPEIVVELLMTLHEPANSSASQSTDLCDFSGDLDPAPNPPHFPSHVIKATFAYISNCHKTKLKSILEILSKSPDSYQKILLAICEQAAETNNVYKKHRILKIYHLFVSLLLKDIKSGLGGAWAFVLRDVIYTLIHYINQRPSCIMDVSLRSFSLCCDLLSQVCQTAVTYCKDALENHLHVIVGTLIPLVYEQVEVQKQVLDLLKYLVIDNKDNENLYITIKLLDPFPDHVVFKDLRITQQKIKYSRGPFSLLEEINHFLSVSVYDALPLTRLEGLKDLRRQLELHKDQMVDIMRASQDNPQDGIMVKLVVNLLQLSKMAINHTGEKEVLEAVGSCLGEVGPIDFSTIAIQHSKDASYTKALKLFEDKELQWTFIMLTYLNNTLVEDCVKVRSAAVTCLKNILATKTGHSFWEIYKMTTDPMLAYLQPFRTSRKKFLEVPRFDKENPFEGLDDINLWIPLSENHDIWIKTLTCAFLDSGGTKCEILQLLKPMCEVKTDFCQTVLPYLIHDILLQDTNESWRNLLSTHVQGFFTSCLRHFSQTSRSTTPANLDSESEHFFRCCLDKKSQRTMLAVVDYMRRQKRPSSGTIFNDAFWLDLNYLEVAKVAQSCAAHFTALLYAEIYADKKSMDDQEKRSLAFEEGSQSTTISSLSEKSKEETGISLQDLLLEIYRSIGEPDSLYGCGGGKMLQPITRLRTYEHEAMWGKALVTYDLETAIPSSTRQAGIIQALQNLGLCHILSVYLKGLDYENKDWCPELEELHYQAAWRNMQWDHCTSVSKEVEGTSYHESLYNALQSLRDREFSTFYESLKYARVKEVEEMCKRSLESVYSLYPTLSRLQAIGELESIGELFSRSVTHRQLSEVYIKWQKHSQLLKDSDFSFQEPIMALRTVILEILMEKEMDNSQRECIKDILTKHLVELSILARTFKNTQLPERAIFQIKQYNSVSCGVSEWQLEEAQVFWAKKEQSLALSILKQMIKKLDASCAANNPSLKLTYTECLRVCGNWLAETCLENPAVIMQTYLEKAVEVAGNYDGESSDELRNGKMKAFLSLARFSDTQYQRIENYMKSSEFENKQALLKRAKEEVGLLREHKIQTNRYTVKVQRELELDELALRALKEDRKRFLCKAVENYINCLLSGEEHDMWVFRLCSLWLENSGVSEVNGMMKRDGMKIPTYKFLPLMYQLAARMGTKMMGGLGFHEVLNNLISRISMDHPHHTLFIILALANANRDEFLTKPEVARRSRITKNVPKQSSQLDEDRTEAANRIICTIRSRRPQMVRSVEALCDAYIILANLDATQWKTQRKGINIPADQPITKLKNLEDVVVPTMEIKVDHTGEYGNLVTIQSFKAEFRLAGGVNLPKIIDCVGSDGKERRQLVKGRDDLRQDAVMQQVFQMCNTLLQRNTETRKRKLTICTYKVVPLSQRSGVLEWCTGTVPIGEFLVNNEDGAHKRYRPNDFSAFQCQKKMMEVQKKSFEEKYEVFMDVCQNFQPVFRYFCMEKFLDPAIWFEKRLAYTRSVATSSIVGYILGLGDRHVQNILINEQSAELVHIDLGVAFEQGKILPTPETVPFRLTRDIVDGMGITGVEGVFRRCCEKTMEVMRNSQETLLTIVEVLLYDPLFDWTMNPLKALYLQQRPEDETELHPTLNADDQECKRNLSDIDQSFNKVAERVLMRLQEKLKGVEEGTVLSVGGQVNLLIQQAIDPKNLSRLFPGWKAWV

- PAR chain formation / PARP1 enzymatic activity (PARP1 [1]): inhibition of PAR chain formation
- PAR chain formation (PARP1 [3]): abolished
SMILES: Nc1ncnc2c1ncn2[C@@H]1O[C@H](C(=O)N2CCN(CC(=O)Nc3cccc4c3CNC4=O)CC2)[C@@H](O)[C@H]1O [EB-47]
- PAR chain formation and NF-κB binding activity (PARP1 [2]): abrogated PAR chain formation and NF-κB binding activity
- phosphorylation of p65 at S536 [4]: detected

- PAR chain formation / PARP1 enzymatic activity (PARP1 [1]): inhibition of PAR chain formation
- PAR chain formation (PARP1 [3]): abolished
SMILES: NC(=O)c1cccc(N)c1 [Example 3-AB]
- PAR chain formation and NF-κB binding activity (PARP1 [2]): abrogated PAR chain formation and NF-κB binding activity
- phosphorylation of p65 at S536 [4]: decreased phosphorylation
- PAR chain formation and NF-κB DNA binding activity (PARP1 [5]): inhibited PAR chain formation and NF-κB DNA binding activity
- NF-κB DNA binding activity [6]: did not abolish

- ATM auto-phosphorylation and phosphorylation of the ATM substrates p53 and KAP1 (ATM): inhibited
- phosphorylation state of p53bp1 (ATM): inhibited
SMILES: O=c1cc(-c2cccc3c2Sc2ccccc2S3)oc(N2CCOCC2)c1 [KU55933, reference compound]
- NFKBIA, TNFAIP3 and CXCL8 mRNA induction upon irradiation [7]: complete inhibition

SMILES: COc1ccc2c3ccnc4c5ccc(OC)c(OC)c5c(=O)n(c2c1)c34 [MW01C1, 6,7,11-trimethoxy-8H-benzo[c]indolo[3,2,1-ij][1,5]naphthyridin-8-one]
- p-p65/p65 ratio (inhibition of NF-κB activation following etoposide co-treatment) [8]: highly potent derivative

SMILES: COc1ccc2c(c1OC)c(=O)n1c3ccc(F)cc3c3ccnc2c31 [MW01C2, 12-fluoro-6,7-dimethoxy-8H-benzo[c]indolo[3,2,1-ij][1,5]naphthyridin-8-one]
- p-p65/p65 ratio (inhibition of NF-κB activation following etoposide co-treatment) [8]: lowest p-p65/p65 ratios

SMILES: Cc1ccc2c(c1)c1ccnc3c4ccccc4c(=O)n2c13 [MW01C3, 12-methyl-8H-benzo[c]indolo[3,2,1-ij][1,5]naphthyridin-8-one]
- p-p65/p65 ratio (inhibition of NF-κB activation following etoposide co-treatment) [8]: lowest p-p65/p65 ratios

SMILES: O=c1c2ccccc2c2nccc3c4cc(Cl)ccc4n1c32 [MW01C4, 12-chloro-8H-benzo[c]indolo[3,2,1-ij][1,5]naphthyridin-8-one]
- p-p65/p65 ratio (inhibition of NF-κB activation following etoposide co-treatment) [8]: lowest p-p65/p65 ratios

SMILES: O=C(c1cc(Cc2n[nH]c(=O)c3ccccc23)ccc1F)N1CCN(C(=O)C2CC2)CC1 [olaparib]
- NFKBIA, TNFAIP3 and CXCL8 mRNA induction upon irradiation [7]: did not change
- p65 S536 phosphorylation in comparison to DMSO/etoposide co-treated controls (p65 S536 phosphorylation; 0.63 μM to 10.0 μM, 90 min after etoposide): No significant decrease
- signal intensity ratio of S536 phosphorylated p65 and total p65 (densitometry, three experiments) (p65 S536 phosphorylation; etoposide co-treatment): did not influence
- phosphorylation of p65 at S536 [4]: decreased phosphorylation

— patent US11028084B2, “Selective inhibitors of gentotoxic steress-induced IKK/NF-κB pathways” (Max-Delbrück-Centrum für Molekulare Medizin in der …, priority 2016, dated 2021)
